Patent US9023987B2, “Cell-permeable peptide” (Seoul National University R&DB Foundation, priority 2010, dated 2015)
Ends that are not written are not given here.

How the values were obtained:
[1] = tested on: human mesenchymal stem cells (hMSC); assay: Cytotoxicity / cell proliferation by quantitative BrdU assay; type: cell-based; parameters: dose or concentration left out as unconfirmed; conditions: 24, 48, and 72 hours, FIG. 6
Protocol: In order to confirm whether or not cell proliferation is affected by potential toxicity when the cell permeable peptide-bone differentiation inducing sequence conjugate and control domains are cultured with hMSC, a degree of cell proliferation was analysis by ELISA using BrdU. Since BrdU was introduced in chromosome instead of deoxy thymidine triphosphate (dTTP) at the time of DNA replication during a proliferation process of hMSC, a degree of introduction of BrdU may reflect a degree of proliferation of hMSC.
First, After 1×10^3 human Mesenchymal Stem cells (hMSC) were plated into each well of 96-well plate, the degree of introduction of BrdU, that is, the degree of proliferation of hMSC was measured using a cell proliferation ELISA kit (BrdU (colorimetry); Boehringermanheim, Germany). Simply describing this method, the cells were treated with the cell permeable peptide-bone differentiation inducing sequence conjugate synthesized by the method in Example 1 and the domains of Example 2 at a concentration of […] and cultured in medium for forming hard tissue for 24, 48, and 72 hours. […] of BrdU (5-bromo-2′-deoxyuridine) was added to each of the groups before 24 hours of each culture time and further cultured for 24 hours. […] The reaction was terminated by 1N H2SO4, and then absorbance was measured using the ELISA reader (Bio-Tek, USA) at 450 nm.

[2] = tested on: human mesenchymal stem cells (hMSC); assay: Cytotoxicity by MTT assay; type: cell-based; parameters: dose or concentration left out as unconfirmed; conditions: 24, 48, and 72 hours, FIG. 5
Protocol: In order to confirm whether or not cell proliferation is affected by potential toxicity when the cell permeable peptide-bone differentiation inducing sequence conjugate and control domains are cultured with hMSC, a 3-[4,5-dimethylthiazo-2-yl]-2,5-diphenyl tetrazolium bromide thiazolyl blue (MTT) assay method was used.
The MTT assay method is a method for measuring cytotoxicity by measuring absorbance of formazan produced as mitochondrial dehydrogenases in alive and metabolically active cells reduces MTT to indicate the absorbance as a percentage based on the control group. In this case, the measured absorbance reflects a concentration of the alive and metabolically active cells. 2,3,5-triphenyl tetrazolium chloride (TTC) is reduced to formazan in live cells. The formazan is insoluble purple color, and a respiration rate may be measured by a degree of color. The absorbance of formazan is maximal at 540 nm, and the absorbance measured at this wavelength reflects the concentration of the alive and metabolically active cells. Since a linear relationship between the absorbance and the concentration of the cells is not established when a concentration of cells in well to be measured is excessively high or low, a process of determining an optimal concentration of the cells was performed. […]

[3] = tested on: human mesenchymal stem cells (hMSC); assay: Cell permeability by fluorescence imaging (confocal scanning microscope); type: cell-based; conditions: FITC/fluorescence-labeled, FIG. 3A, FIG. 7
Protocol: The domains synthesized in Example 1 and Comparative Examples 1 and 2 were labeled with a fluorescent material in order to measure cell permeability. 10 equivalents of fluorescein isothiocyanate (FITC) was bound to N-terminals of the synthesized domains by using triethylamine (1 ml per 1 g of resin). The synthesis of the peptide was confirmed by measuring the molecular weight thereof through MALDI-TOF.
In order to measure the cell permeability of the cell permeable peptide-bone differentiation inducing sequence conjugate, after sterile slide glass was input in a 6-well plate and 2×10^4 human mesenchymal stem cells (hMSC) were plated in each well, the cells were cultured in a general medium for 20 hours (overnight incubation). Then the cells was cultured in an hMSC basal medium (MSCBM, LONZA, USA) containing 0.5% fetal bovine serum (FBS, GIBCO, USA) for 20 hours (overnight starvation). […] fluorescence labeled cell permeable peptide-bone differentiation inducing sequence conjugate and […] fluorescence labeled bone differentiation inducing sequence that were obtained by binding FITC (SIGMA, USA) N-terminals of the cell permeable peptide-bone differentiation inducing sequence conjugate synthesized by the method in Example 1 and the domain in Comparative Example 2 to synthesize the fluorescence label conjugate and fluorescence label domain, followed by isolation and purification, were injected into each well and washed with phosphate buffer solution (PBS) two times after 20 minutes and 80 minutes of injection. The resultants was observed using a confocal scanning microscope (IX 70, Olympus Co., Tokyo, Japan).

[4] = molecular target: T1, human-derived Smurf1 protein (Homo sapiens, UniProt Q9HCE7); assay: Affinity to Smurf1 by surface plasmon resonance (BIACORE T100); type: binding; conditions: 10 mM analyte over Smurf1 coupled to CM5 chip; FIG. 2A
T1 construct: purchased Origene Technologies (Rockville, Md., USA)
Protocol: In order to confirm the affinity between cell permeable peptide-bone differentiation inducing sequence conjugate and Smurf1 by a chemical method, a human-derived Smurf1 protein acting as a ligand in the present experiment was purchased from Origene Technologies (Rockville, Md., USA). The protein ([…]) was coupled to a gold coated surface of a CM5 chip (BIACORE AB, Sweden) on which amino groups are bounded using an EDC/NHS kit (BIACORE AB, Sweden). (Instead of this experimental method, ‘Immobilization’ integrated into the BIACORE® T100 (BIACORE AB, Sweden) software used by the present inventors may be used). In this case, in order to find a suitable pH condition at which the protein may bind to the amino group in the CM5 chip, a method called ‘pH scouting’ was performed, thereby finding a pH condition. As a method of ‘pH scouting’, a method integrated in the BIACORE® T100 (BIACORE AB, Sweden) software used by the present inventors may be used. […]

T1 sequence (Q9HCE7 whole entry): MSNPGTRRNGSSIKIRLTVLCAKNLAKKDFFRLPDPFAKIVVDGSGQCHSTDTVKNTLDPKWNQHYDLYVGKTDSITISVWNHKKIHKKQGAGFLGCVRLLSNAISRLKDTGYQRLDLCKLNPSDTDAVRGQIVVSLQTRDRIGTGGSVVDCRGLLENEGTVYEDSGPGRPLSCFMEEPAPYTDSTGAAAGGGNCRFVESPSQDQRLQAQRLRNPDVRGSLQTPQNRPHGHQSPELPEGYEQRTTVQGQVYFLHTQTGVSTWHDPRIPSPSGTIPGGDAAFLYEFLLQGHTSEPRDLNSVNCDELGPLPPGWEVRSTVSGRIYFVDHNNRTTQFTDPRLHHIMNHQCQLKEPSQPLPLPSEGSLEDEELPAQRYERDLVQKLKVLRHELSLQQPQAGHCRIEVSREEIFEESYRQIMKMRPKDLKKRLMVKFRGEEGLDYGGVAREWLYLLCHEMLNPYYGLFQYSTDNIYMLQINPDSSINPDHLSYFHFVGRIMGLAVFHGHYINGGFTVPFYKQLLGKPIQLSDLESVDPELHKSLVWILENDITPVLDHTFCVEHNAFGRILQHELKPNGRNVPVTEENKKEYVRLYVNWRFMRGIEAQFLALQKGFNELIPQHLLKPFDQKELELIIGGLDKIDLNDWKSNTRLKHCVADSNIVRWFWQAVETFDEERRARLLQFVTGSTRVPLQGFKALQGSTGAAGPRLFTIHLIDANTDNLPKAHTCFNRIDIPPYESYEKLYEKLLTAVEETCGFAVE

| Substance | effect on cell proliferation (BrdU, DNA synthesis ability compared with PBS) [1] | cytotoxicity (MTT, cell proliferation ability compared with PBS) [2] | intracellular fluorescence after 20 minutes (confocal) [3] | intracellular fluorescence after 80 minutes (confocal) [3] | affinity to Smurf1 [4] [RU] |
| --- | --- | --- | --- | --- | --- |
| GAPPPADSAP-NH2 [Comparative Example 2, GAPPPADSAP, reference compound] | did not affect the cell proliferation | did not exhibit cytotoxicity | – | – | – |
| SSRKKNPNCRRH (H4S) [Comparative Example 1] | – | – | fluorescent materials uniformly present in cytoplasm were observed | fluorescent materials densely present up to in nucleus were confirmed | 100 |
| YGRKKRRQRRR [TAT, reference compound] | – | – | fluorescent materials uniformly present in cytoplasm were observed | fluorescent materials densely present up to in nucleus were confirmed | – |
